Assay results published in patent US10858366B2 (priority 2016, dated 2020).

biological target: RNP_CAL (PB2, PB1, PA, NP, influenza A Luciferase reporter in 293T cells) (Influenza A virus (strain swl A/California/04/2009 H1N1), UniProt C3W5S0); test: cell-based

Compound	EC50 [µM]
CCc1cnc2n1C[C@H](C(c1ccccc1)c1ccccc1)n1ccc(=O)c(O)c1-2 [Example 9, (S)-6-benzhydryl-3-ethyl-11-hydroxy-5H-imidazo[1,2-a]pyrido[2,1-c]pyrazin-10(6H)-one]	0.58
O=c1cnn2c(c1O)-c1nccn1CC2C(c1ccc(Cl)cc1)c1ccc(Cl)cc1 (stereo not shown) [Example 10, 6-(bis(4-chlorophenyl)methyl)-11-hydroxy-5H-imidazo[2′,1′:3,4]pyrazino[1,2-b]pyridazin-10(6H)-one]	0.32
O=c1cnn2c(c1O)-c1nccn1CC2C(c1cccc(Cl)c1)c1cccc(Cl)c1 (stereo not shown) [Example 11, 6-(bis(3-chlorophenyl)methyl)-11-hydroxy-5H-imidazo[2′,1′:3,4]pyrazino[1,2-b]pyridazin-10(6H)-one]	0.08
O=c1cnn2c(c1O)-c1nccn1CC2C(c1ccc(F)cc1)c1ccc(F)cc1 (stereo not shown) [Example 12, 6-(bis(4-fluorophenyl)methyl)-11-hydroxy-5H-imidazo[2′,1′:3,4]pyrazino[1,2-b]pyridazin-10(6H)-one]	0.8
Cc1cnc2n1C[C@H](C(c1ccccc1)c1ccccc1)n1ccc(=O)c(O)c1-2 [Example 13, (S)-6-benzhydryl-11-hydroxy-3-methyl-5H-imidazo[1,2-a]pyrido[2,1-c]pyrazin-10(6H)-one]	0.31
O=c1cnn2c(c1O)-c1nccn1C[C@@H]2C(c1cccc(Cl)c1)c1cccc(Cl)c1 [Example 15, (S)-6-(bis(3-chlorophenyl)methyl)-11-hydroxy-5H-imidazo [2′,1′:3,4] pyrazino [1,2-b]pyridazin-10(6H)-one]	0.025
O=c1cnn2c(c1O)-c1nccn1C[C@H]2C(c1cccc(Cl)c1)c1cccc(Cl)c1 [Example 16, (R)-6-(bis(3-chlorophenyl)methyl)-11-hydroxy-5H-imidazo[2′,1′:3,4] pyrazino [1,2-b]pyridazin-10(6H)-one]	0.82
O=c1cnn2c(c1O)-c1nccn1C[C@@H]2[C@@H](c1ccc(F)cc1)c1cccc(C(F)(F)F)c1 [Example 21, (S)-6-((S)-(4-fluorophenyl)(3-(trifluoromethyl)phenyl)methyl)-11-hydroxy-5,6-dihydro-10H-imidazo[2′,1′:3,4]pyrazino[1,2-b]pyridazin-10-one]	0.052
O=c1cnn2c(c1O)-c1nccn1C[C@@H]2C(c1ccc(F)cc1)c1ccc(F)cc1 [Example 22, (S)-6-(bis(4-fluorophenyl)methyl)-11-hydroxy-5,6-dihydro-10H-imidazo[2′,1′:3,4]pyrazino[1,2-b]pyridazin-10-one]	0.082
O=c1cnn2c(c1O)-c1nccn1C[C@@H]2[C@@H](c1ccc(F)cc1)c1ccc(F)c(F)c1 [Example 25, (S)-6-((S)-(3,4-difluorophenyl)(4-fluorophenyl)methyl)-11-hydroxy-5H-imidazo[2′,1′:3,4]pyrazino[1,2-b]pyridazin-10(6H)-one]	0.056
O=c1cnn2c(c1O)-c1nccn1C[C@@H]2[C@H](c1ccc(F)cc1)c1cccc(F)c1 [Example 26, (S)-6-((R)-(3-fluorophenyl)(4-fluorophenyl)methyl)-11-hydroxy-5,6-dihydro-10H-imidazo[2′,1′:3,4]pyrazino[1,2-b]pyridazin-10-one]	0.038
Cc1cc(F)ccc1[C@H](c1ccc(F)cc1)[C@H]1Cn2ccnc2-c2c(O)c(=O)cnn21 [Example 27, (S)-6-((S)-(4-fluoro-2-methylphenyl)(4-fluorophenyl)methyl)-11-hydroxy-5,6-dihydro-10H-imidazo[2′,1′:3,4]pyrazino[1,2-b]pyridazin-10-one]	0.05
CSc1cccc([C@H](c2ccc(F)cc2)[C@H]2Cn3ccnc3-c3c(O)c(=O)cnn32)c1 [Example 28, (S)-6-((S)-(4-fluorophenyl)(3-(methylthio)phenyl)methyl)-11-hydroxy-5,6-dihydro-10H-imidazo[2′,1′:3,4]pyrazino[1,2-b]pyridazin-10-one]	0.081
